Laboratory results: ChEMBL document CHEMBL4725268, “Anticonvulsant and analgesic in neuropathic pain activity in a group of new aminoalkanol derivatives” (Bioorg Med Chem Lett, 2020)
Activity calls are given as the source filed them.

Tests used:
[1] = system: Mus musculus; test: Anticonvulsant activity in ip dosed albino mouse assessed as protection against 50 mA current-induced seizure by maximal electroshock seizure test; assay type: functional
[2] = Protection index, ratio of TD50 for toxicity in ip dosed mouse to ED50 for anticonvulsant activity in ip dosed mouse; assay type: organism-based; settings: in vivo, read-out: PI
[3] = Toxicity in ip dosed mouse assessed as motor impairment by rotarod test; assay type: organism-based; settings: in vivo
[4] = system: Mus musculus; test: Anticonvulsant activity in ip dosed mouse assessed as protection against current-induced seizure by maximal electroshock seizure test; assay type: functional
[5] = target: T1, 5-hydroxytryptamine receptor 1A (Homo sapiens, UniProt P08908); test: Binding affinity to 5-HT1A (unknown origin)
T1 sequence (P08908 whole entry): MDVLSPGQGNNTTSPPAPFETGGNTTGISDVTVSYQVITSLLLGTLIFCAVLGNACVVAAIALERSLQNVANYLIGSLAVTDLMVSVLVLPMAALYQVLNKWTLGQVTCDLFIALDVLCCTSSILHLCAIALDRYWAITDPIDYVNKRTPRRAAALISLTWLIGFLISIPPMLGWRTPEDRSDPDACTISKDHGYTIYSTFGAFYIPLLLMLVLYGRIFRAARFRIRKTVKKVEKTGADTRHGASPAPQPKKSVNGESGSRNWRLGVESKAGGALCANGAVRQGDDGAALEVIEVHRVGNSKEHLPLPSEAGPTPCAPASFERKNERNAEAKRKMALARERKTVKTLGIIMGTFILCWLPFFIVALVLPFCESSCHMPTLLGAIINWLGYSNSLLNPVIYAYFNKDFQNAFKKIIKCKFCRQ

[6] = system: Mus musculus; test: Antiallodynic activity in mouse model of OXA-induced peripheral neuropathy assessed as mean latency time to nocifensive response at 18 mg/kg, ip administered after 3 hrs of OXA stimulation and measured after 1 hr by cold plate method (reference value: 59.76 +/- 0.16 sec); assay type: functional
[7] = Drug metabolism in mouse microsome assessed as formation of monohydroxylated metabolite; assay type: ADME; settings: microsomes
[8] = in vitro; settings: mouse, microsomes
Description: Metabolic stability in mouse microsome assessed as half life

[9] = Genotoxicity in Salmonella typhimurium TA98 assessed as mutagenic index at 75 ug by AMES test; assay type: toxicity, Salmonella enterica subsp. enterica serovar Typhimurium; settings: in vivo; dose 75 µg
[10] = in vitro; settings: mouse, microsomes; remark: listed apart in the source
Description: Metabolic stability in mouse microsome assessed as intrinsic clearance

[11] = Toxicity in mouse assessed as lethality at 50 mg/kg, ip; assay type: organism-based; settings: in vivo
[12] = Genotoxicity in Salmonella typhimurium TA100 assessed as number of revertant at 10 ug by AMES test (reference value: 64.3 to 130.7); assay type: toxicity, Salmonella enterica subsp. enterica serovar Typhimurium; settings: in vivo; dose 10 µg
[13] = Genotoxicity in Salmonella typhimurium TA100 assessed as mutagenic index at 75 ug by AMES test; assay type: toxicity, Salmonella enterica subsp. enterica serovar Typhimurium; settings: in vivo; dose 75 µg
[14] = Genotoxicity in Salmonella typhimurium TA100 assessed as mutagenic index at 750 ug by AMES test; assay type: toxicity, Salmonella enterica subsp. enterica serovar Typhimurium; settings: in vivo; dose 750 µg
[15] = Genotoxicity in Salmonella typhimurium TA100 assessed as number of revertant at 75 ug by AMES test (reference value: 64.3 to 130.7); assay type: toxicity, Salmonella enterica subsp. enterica serovar Typhimurium; settings: in vivo; dose 75 µg
[16] = Genotoxicity in Salmonella typhimurium TA98 assessed as mutagenic index at 500 ug by AMES test; assay type: toxicity, Salmonella enterica subsp. enterica serovar Typhimurium; settings: in vivo; dose 500 µg
[17] = Genotoxicity in Salmonella typhimurium TA98 assessed as number of revertant at 200 ug by AMES test (reference value: 8 to 8.3); assay type: toxicity, Salmonella enterica subsp. enterica serovar Typhimurium; settings: in vivo; dose 200 µg
[18] = Genotoxicity in Salmonella typhimurium TA100 assessed as number of revertant at 750 ug by AMES test (reference value: 64.3 to 130.7); assay type: toxicity, Salmonella enterica subsp. enterica serovar Typhimurium; settings: in vivo; dose 750 µg
[19] = Genotoxicity in Salmonella typhimurium TA100 assessed as mutagenic index at 10 ug by AMES test; assay type: toxicity, Salmonella enterica subsp. enterica serovar Typhimurium; settings: in vivo; dose 10 µg
[20] = Genotoxicity in Salmonella typhimurium TA100 assessed as number of revertant at 200 ug by AMES test (reference value: 64.3 to 130.7); assay type: toxicity, Salmonella enterica subsp. enterica serovar Typhimurium; settings: in vivo; dose 200 µg
[21] = system: Mus musculus; test: Antiallodynic activity in mouse model of OXA-induced peripheral neuropathy assessed as mean paw withdrawal threshold at 18 mg/kg, ip administered after 3 hrs of OXA stimulation and measured after 1 hr by Von-frey method (reference value: 3.144 +/- 0.169 g); assay type: functional
[22] = Antioxidant activity assessed as DPPH radical scavenging activity at 125 to 1000 uM by microplate method; assay type: functional; settings: dose microM 125-1000
[23] = Genotoxicity in Salmonella typhimurium TA98 assessed as number of revertant at 500 ug by AMES test (reference value: 8 to 8.3); assay type: toxicity, Salmonella enterica subsp. enterica serovar Typhimurium; settings: in vivo; dose 500 µg
[24] = Genotoxicity in Salmonella typhimurium TA98 assessed as mutagenic index at 200 ug by AMES test; assay type: toxicity, Salmonella enterica subsp. enterica serovar Typhimurium; settings: in vivo; dose 200 µg
[25] = Genotoxicity in Salmonella typhimurium TA100 assessed as mutagenic index at 200 ug by AMES test; assay type: toxicity, Salmonella enterica subsp. enterica serovar Typhimurium; settings: in vivo; dose 200 µg
[26] = system: Mus musculus; test: Antiallodynic activity in mouse model of OXA-induced peripheral neuropathy assessed as mean latency time to nocifensive response at 18 mg/kg, ip administered after 7 days of OXA stimulation and measured after 1 hr by cold plate method (reference value: 57.64 +/- 1.267 sec); assay type: functional
[27] = Genotoxicity in Salmonella typhimurium TA98 assessed as mutagenic index at 10 ug by AMES test; assay type: toxicity, Salmonella enterica subsp. enterica serovar Typhimurium; settings: in vivo; dose 10 µg
[28] = system: Mus musculus; test: Antiallodynic activity in mouse model of OXA-induced peripheral neuropathy assessed as mean paw withdrawal threshold at 18 mg/kg, ip administered after 7 days of OXA stimulation and measured after 1 hr by Von-frey method (reference value: 3.192 +/- 0.181 g); assay type: functional
[29] = Genotoxicity in Salmonella typhimurium TA98 assessed as number of revertant at 10 ug by AMES test (reference value: 8 to 8.3); assay type: toxicity, Salmonella enterica subsp. enterica serovar Typhimurium; settings: in vivo; dose 10 µg
[30] = Genotoxicity in Salmonella typhimurium TA98 assessed as number of revertant at 75 ug by AMES test (reference value: 8 to 8.3); assay type: toxicity, Salmonella enterica subsp. enterica serovar Typhimurium; settings: in vivo; dose 75 µg

CC(C)NC[C@H](O)COc1cccc2ccccc12 [LEVOPROPRANOLOL]
ED50 [1]: 19.2 mg/kg

CC[C@@H](CO)NCCOCCOc1ccc(C)cc1C.Cl
selectivity ratio [2]: 2.33 | TD50 [3]: 94.4 mg/kg | ED50 [4]: 40.5 mg/kg

CC(C)NC[C@@H](O)COc1cccc2ccccc12 [DEXPROPRANOLOL]
ED50 [1]: 16 mg/kg

CC(C)NCC(O)COc1cccc2ccccc12 (racemic) [PROPRANOLOL]
ED50 [1]: 1.2 mg/kg

Cc1cc(C)c(C)c(OCCOCCN[C@H]2CCCC[C@@H]2O)c1.Cl (racemic)
Ki [5]: 1.2 µM | Time [6]: 20.92 s | Drug metabolism [7]: Metabolite_Detected | half-life [8]: 37.2 min | Activity_index [9]: 1 | selectivity ratio [2]: 2.91 | microsomal CLint [10]: 93 µL/min/mg | TD50 [3]: 54.2 mg/kg | Activity [11]: Non-Toxic | Activity [12]: 86 | Activity_index [13]: 1.1 | ED50 [4]: 18.2 mg/kg | Activity_index [14]: 0.4 | Activity [15]: 80.7 | Activity_index [16]: 1.1 | Activity [17]: 11 | Activity [18]: 56 | Activity_index [19]: 1.2 | Activity [20]: 70.5 | Activity [21]: 2.09 g | Activity [22]: inactive | Activity [23]: 9 | Activity_index [24]: 1.4 | Activity_index [25]: 1 | Time [26]: 8.86 s | Activity_index [27]: 0.9 | Activity [28]: 1.907 g | Activity [29]: 7 | Activity [30]: 8

Cc1ccc(OCCCN2CCC(O)CC2)c(C)c1
Activity [11]: Non-Toxic
